Measurements from US20250120961A1, “P53 MODULATORS” (Nested Therapeutics, Inc., priority 2023, published 2025).
Like-named read-outs stand apart in the source and are kept apart here.

Target: His-tagged p53-Y220C DNA binding domain (Homo sapiens, UniProt P04637, Y220C)
Assay: Biochemical p53-Y220C and DNA binding assay (HTRF)
Settings: read-out: HTRF IP
Text: Biological Example 1. Biochemical p53-Y220C and DNA Binding Assay
The compounds of this invention can bind to p53-Y220C and increase the ability of the mutant p53 to bind to DNA at higher temperatures. His-tagged p53-Y220C DNA binding domain containing amino acid 94-312 is used to measure DNA binding activities in vitro with the sequence described below. (SEQ ID NO: 1: […]. Biotin labeled double strand DNA (dsDNA) containing consensus p53 binding sequence (SEQ ID NO: 2: Forward: 5′-(biotin)-[…]-3′; Reverse: 5′-(biotin)-[…]-3′) is used to measure protein-DNA binding activities. Compounds, His-tagged p53-Y220C DBD proteins (100 nM), and biotinylated dsDNA (200 nM) were mixed in ice-cold assay buffer containing DPBS, 20 mM NaCl, and 0.5% BAS, and incubated at 4° C. overnight in 384-well plate. Plates were transferred to incubator at 27 to 29° C. with constant shaking for 60 minutes. Equal volume of Homogeneous Time-Resolved Fluorescence (HTRF) dyes containing mAb anti-6HIS Tb cryptate gold and d2 labeled streptavidin in the assay buffer was added to each well and incubated at 27 to 29° C. with constant shaking for 60 minutes. The plate was read using Envision multimode plate reader. Reference compound 1 was used as high control and DMSO was used as low control. The percentage activation (A %) of protein-DNA binding by compounds was normalized by setting up high control (reference compound) as […] and low control (DMSO) as 0% (A %=(HTRF ratio of compound-HTRF ratio of low control)/(HTRF ratio of high control-HTRF ratio of low control)*500). 10 points dose titration curves for each compound were analyzed by 4 parameter curve fit and inflection point (IP) was reported. Reference compound 1 is shown below Table 1. Compounds of the invention are active in the HTRF assay. Data in Table 1 collected using Biological Example 1.

[1] = inflection point of 10 points dose titration, 4 parameter curve fit, p53-Y220C DBD 100 nM, biotinylated dsDNA 200 nM, 27 to 29° C.

| Compound | EC50 [1] | EC50 (bound printed in the heading for the reference compound) |
| --- | --- | --- |
| CC(O)(CO/N=C\c1sc2c(N[C@@H]3CNC[C@@H]3F)cccc2c1CC(F)(F)F)c1ccccc1 (stereo partly drawn) [Example 1-22, (Z)-7-(((3R,4S)-4-fluoropyrrolidin-3-yl)amino)-3-(2,2,2-trifluoroethyl)benzo[b]thiophene-2-carbaldehyde O-(2-hydroxy-2-phenylpropyl) oxime] | 100 to 1000 nM | – |
| O=c1cccc(CO/N=C/c2sc3c(N[C@@H]4CNC[C@@H]4F)cccc3c2CC(F)(F)F)[nH]1 [Example 2-26, (E)-7-(((3R,4S)-4-fluoropyrrolidin-3-yl)amino)-3-(2,2,2-trifluoroethyl)benzo[b]thiophene-2-carbaldehyde O-((6-oxo-1,6-dihydropyridin-2-yl)methyl) oxime] | < 100 nM | – |
| CN1CC[C@@H](Nc2cccc3c(CC(F)(F)F)c(/C=C/C(O)c4ccccn4)sc23)[C@@H](F)C1 (stereo partly drawn) [Example 5-2, (E)-3-(7-(((3S,4R)-3-fluoro-1-methylpiperidin-4-yl)amino)-3-(2,2,2-trifluoroethyl)benzo[b]thiophen-2-yl)-1-(pyridin-2-yl)prop-2-en-1-ol] | > 1000 nM | – |
| CN1CC[C@@H](Nc2cccc3c2cc(/C=N/OCc2ccccc2)n3CC(F)(F)F)[C@@H](F)C1 [Example 2-3, (E)-4-(((3S,4R)-3-fluoro-1-methylpiperidin-4-yl)amino)-1-(2,2,2-trifluoroethyl)-1H-indole-2-carbaldehyde O-benzyl oxime] | > 1000 nM | – |
| CN1CC[C@@H](Nc2cccc3c2cc(/C=N/OCc2nc4ccccc4[nH]2)n3CC(F)(F)F)[C@@H](F)C1 [Example 2-9, (E)-4-(((3S,4R)-3-fluoro-1-methylpiperidin-4-yl)amino)-1-(2,2,2-trifluoroethyl)-1H-indole-2-carbaldehyde O-((1H-benzo[d]imidazol-2-yl)methyl)oxime] | 100 to 1000 nM | – |
| CC[C@@H](CO)O/N=C/c1sc2c(N[C@@H]3CNC[C@@H]3F)cccc2c1CC(F)(F)F [Example 1-2, (E)-7-(((3R,4S)-4-fluoropyrrolidin-3-yl)amino)-3-(2,2,2-trifluoroethyl)benzo[b]thiophene-2-carbaldehyde O-((S)-1-hydroxybutan-2-yl) oxime] | > 1000 nM | – |
| COCC(CO)O/N=C/c1sc2c(N[C@@H]3CNC[C@@H]3F)cccc2c1CC(F)(F)F (stereo partly drawn) [Example 1-11, (E)-7-(((3R,4S)-4-fluoropyrrolidin-3-yl)amino)-3-(2,2,2-trifluoroethyl)benzo[b]thiophene-2-carbaldehyde O-(1-hydroxy-3-methoxypropan-2-yl) oxime] | > 1000 nM | – |
| CN1CC[C@@H](Nc2cccc3c2cc(/C=N/Oc2ccccc2)n3CC(F)(F)F)[C@@H](F)C1 [Example 2-6, (E)-4-(((3S,4R)-3-fluoro-1-methylpiperidin-4-yl)amino)-1-(2,2,2-trifluoroethyl)-1H-indole-2-carbaldehyde O-phenyl oxime] | > 1000 nM | – |
| CN1CC[C@@H](Nc2cccc3c2cc(-c2noc(CNC(=O)c4cnn(C(C)(C)C)c4)n2)n3CC(F)(F)F)[C@@H](F)C1 [Reference Compound 1, reference compound] | < 100 nM | < 100 nM |
| CC(O)(CO/N=C/c1sc2c(N[C@@H]3CNC[C@@H]3F)cccc2c1CC(F)(F)F)c1ccccc1 (stereo in doubt) [Example 1-24, (E)-7-(((3R,4S)-4-fluoropyrrolidin-3-yl)amino)-3-(2,2,2-trifluoroethyl)benzo[b]thiophene-2-carbaldehyde O-(2-hydroxy-2-phenylpropyl) oxime] | 100 to 1000 nM | – |
| OC(CO/N=C/c1sc2c(N[C@@H]3CNC[C@@H]3F)cccc2c1CC(F)(F)F)Cn1cccn1 (stereo partly drawn) [Example 1-27, (E)-7-(((3R,4S)-4-fluoropyrrolidin-3-yl)amino)-3-(2,2,2-trifluoroethyl)benzo[b]thiophene-2-carbaldehyde O-(2-hydroxy-3-(1H-pyrazol-1-yl)propyl) oxime] | 100 to 1000 nM | – |
| OC1(CO/N=C/c2sc3c(N[C@@H]4CNC[C@@H]4F)cccc3c2CC(F)(F)F)CCCOC1 (stereo partly drawn) [Example 1-15, (E)-7-(((3R,4S)-4-fluoropyrrolidin-3-yl)amino)-3-(2,2,2-trifluoroethyl)benzo[b]thiophene-2-carbaldehyde O-((3-hydroxytetrahydro-2H-pyran-3-yl)methyl) oxime] | 100 to 1000 nM | – |
| OCC(O)CO/N=C/c1sc2c(N[C@@H]3CNC[C@@H]3F)cccc2c1CC(F)(F)F (stereo partly drawn) [Example 1-6, (E)-7-(((3R,4S)-4-fluoropyrrolidin-3-yl)amino)-3-(2,2,2-trifluoroethyl)benzo[b]thiophene-2-carbaldehyde O-(2,3-dihydroxypropyl) oxime] | 100 to 1000 nM | – |
| COC(=O)NC/C=C/c1sc2c(N[C@@H]3CCN(C)C[C@@H]3F)cccc2c1CC(F)(F)F [Example 6-4, methyl ((E)-3-(7-(((3S,4R)-3-fluoro-1-methylpiperidin-4 yl)amino)-3-(2,2,2-trifluoroethyl)benzo[b]thiophen-2-yl)allyl)carbamate] | 100 to 1000 nM | – |
| O=C1CCC(CO/N=C/c2sc3c(N[C@@H]4CNC[C@@H]4F)cccc3c2CC(F)(F)F)N1 (stereo partly drawn) [Example 2-18, (E)-7-(((3R,4S)-4-fluoropyrrolidin-3-yl)amino)-3-(2,2,2-trifluoroethyl)benzo[b]thiophene-2-carbaldehyde O-((5-oxopyrrolidin-2-yl)methyl) oxime] | 100 to 1000 nM | – |
| OC(COCc1ccccc1)CO/N=C/c1sc2c(N[C@@H]3CNC[C@@H]3F)cccc2c1CC(F)(F)F (stereo partly drawn) [Example 1-34, (E)-7-(((3R,4S)-4-fluoropyrrolidin-3-yl)amino)-3-(2,2,2-trifluoroethyl)benzo[b]thiophene-2-carbaldehyde O-(3-(benzyloxy)-2-hydroxypropyl) oxime] | > 1000 nM | – |
| CN1CC[C@@H](Nc2cccc3c(CC(F)(F)F)c(/C=C/C(O)c4cnn(C)c4)sc23)[C@@H](F)C1 (some centres unmarked) [Example 5-5] | 100 to 1000 nM | – |
| O=C1NCC(CO/N=C/c2sc3c(N[C@@H]4CNC[C@@H]4F)cccc3c2CC(F)(F)F)O1 (stereo partly drawn) [Example 2-23, (E)-7-(((3R,4S)-4-fluoropyrrolidin-3-yl)amino)-3-(2,2,2-trifluoroethyl)benzo[b]thiophene-2-carbaldehyde O-((2-oxooxazolidin-5-yl)methyl) oxime] | 100 to 1000 nM | – |
| CN1CC[C@@H](Nc2cccc3c(CC(F)(F)F)c(/C=N/OCc4cccc(=O)[nH]4)sc23)[C@@H](F)C1 [Example 2-31, (E)-7-(((3S,4R)-3-fluoro-1-methylpiperidin-4-yl)amino)-3-(2,2,2-trifluoroethyl)benzo[b]thiophene-2-carbaldehyde O-((6-oxo-1,6-dihydropyridin-2-yl)methyl) oxime] | < 100 nM | – |
| CN1CC[C@@H](Nc2cccc3c(CC(F)(F)F)c(/C=C/C(O)c4cccnc4)sc23)[C@@H](F)C1 (stereo partly drawn) [Example 5-4, (E)-3-(7-(((3S,4R)-3-fluoro-1-methylpiperidin-4-yl)amino)-3-(2,2,2-trifluoroethyl)benzo[b]thiophen-2-yl)-1-(pyridin-3-yl)prop-2-en-1-ol] | 100 to 1000 nM | – |
| CN1CC[C@@H](Nc2cccc3c(CC(F)(F)F)c(/C=N/OCC(C)(C)O)sc23)[C@@H](F)C1 [Example 1-39, (E)-7-(((3S,4R)-3-fluoro-1-methylpiperidin-4-yl)amino)-3-(2,2,2-trifluoroethyl)benzo[b]thiophene-2-carbaldehyde O-(2-hydroxy-2-methylpropyl) oxime] | < 100 nM | – |
| CN1CC[C@@H](Nc2cccc3c(SC(F)(F)F)c(/C=N/OCC(C)(C)O)sc23)[C@@H](F)C1 [Example 2-32, (E)-7-(((3S,4R)-3-fluoro-1-methylpiperidin-4-yl)amino)-3-((trifluoromethyl)thio)benzo[b]thiophene-2-carbaldehyde O-(2-hydroxy-2-methylpropyl) oxime] | 100 to 1000 nM | – |
| OC1(CO/N=C/c2sc3c(N[C@@H]4CNC[C@@H]4F)cccc3c2CC(F)(F)F)CCCCC1 [Example 1-29, (E)-7-(((3R,4S)-4-fluoropyrrolidin-3-yl)amino)-3-(2,2,2-trifluoroethyl)benzo[b]thiophene-2-carbaldehyde O-((1-hydroxycyclohexyl)methyl) oxime] | > 1000 nM | – |
| CN1CC[C@@H](Nc2cccc3c(CC(F)(F)F)c(/C=C/CNC(=O)c4cnn(C)c4)sc23)[C@@H](F)C1 [Example 6-2, N-((E)-3-(7-(((3S,4R)-3-fluoro-1-methylpiperidin-4-yl)amino)-3-(2,2,2-trifluoroethyl)benzo[b]thiophen-2-yl)allyl)-1-methyl-1H-pyrazole-4-carboxamide] | 100 to 1000 nM | – |
| OCC1(O/N=C/c2sc3c(N[C@@H]4CNC[C@@H]4F)cccc3c2CC(F)(F)F)CCC1 [Example 1-19, (E)-7-(((3R,4S)-4-fluoropyrrolidin-3-yl)amino)-3-(2,2,2-trifluoroethyl)benzo[b]thiophene-2-carbaldehyde O-(1-(hydroxymethyl)cyclobutyl) oxime] | 100 to 1000 nM | – |
